Values of other authors as cited in patent publication US8895039B2, “Cosmetic preparations containing hydrocarbons” (Cognis IP Management GmbH, priority 2007, dated 2014).

Conditions: at 20° C.

Viscosity: 0.711 cP
Structure (SMILES): CCCCCCCCC [Nonane]
